Earlier results on 1 compound are cited in patent publication US20210128584A1, “USE OF GLUCOCORTICOID RECEPTOR ANTAGONISTS FOR THE TREATMENT OF AMYOTROPHIC LATERAL SCLEROSIS” (Corcept Therapeutics Incorporated, priority 2008, published 2021).

Regarding `CC#C[C@]1(O)CC[C@H]2[C@@H]3CCC4=CC(=O)CCC4=C3[C@@H](c3ccc(N(C)C)cc3)C[C@@]21C` [Mifepristone, 17β-hydroxy-11β-(4-dimethyl-aminophenyl)-17α-(1-propynyl)-estra-4,9-dien-3-one], the “fraction of the daily dose excreted in the urine” value is “less than 0.5%”.
